PMC13376213, “Systematic discovery of motif-based interactions of the auxiliary domains of USP family deubiquitinases” (Nature Communications, 2026)
Read-outs that look alike come from different tables or passages of the source. Each block holds one compound with its values, some of them ahead of it. Ends that are not written are not given here. Peptide text beside a SMILES is read from it. * marks the point of attachment. FITC = O=C1OC2(c3ccc(O)cc3Oc3cc(O)ccc32)c2ccc(NC(=S)*)cc21

Columns and labels:
Format in all cases: binding
USP33 zf-UBP domain = target: T1, USP33 zf-UBP domain (Homo sapiens, UniProt Q8TEY7); experiment: FP-monitored affinity measurements, USP33 zf-UBP
T1 construct: USP33_UBP; Q8TEY7; zf-UBP; 36; 130; 6xHis-GST (N, cleaved yes); made in house; host or cells: Escherichia coli BL21-Gold (DE3)
T1 sequence (Q8TEY7 with tags, fused parts or gaps): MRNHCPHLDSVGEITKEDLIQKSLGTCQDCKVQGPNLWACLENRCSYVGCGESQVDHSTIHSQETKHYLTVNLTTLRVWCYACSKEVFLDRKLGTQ
Description: (§2) The measurements were performed at room temperature in a non-binding black half area 96-well plate (Corning) with a total volume of 50 μL per well. […] All measurements were performed in three technical replicates. […] The saturation curves were fitted to the quadratic equation, and the displacement curves were fitted to a sigmoidal dose-response equation as described previously[68].

USP20 zf-UBP domain = target: T2, USP20 zf-UBP domain (Homo sapiens, UniProt Q9Y2K6); experiment: FP-monitored affinity measurements, USP20 zf-UBP
T2 construct: USP20_UBP; Q9Y2K6; zf-UBP; 99; 6xHis-GST (N, cleaved yes); made in house; host or cells: Escherichia coli BL21-Gold (DE3)
Description: as §2

USP11 DUSP-UBL domain = target: T3, USP11 DUSP-UBL domain (Homo sapiens, UniProt P51784); experiment: FP-based affinity measurements, USP11 DUSP-UBL
T3 construct: USP11_UBL; P51784; UBL; 6xHis-GST (N, cleaved yes); made in house; host or cells: Escherichia coli BL21-Gold (DE3)
Description: (§1) Proteins were expressed in Escherichia coli (E.coli) BL21-Gold (DE3) bacteria. The cDNAs encoding N-terminal 6-histidine-glutathione S-transferase tagged (6xHis-GST), 6xHis-tagged or GST-tagged protein domains in pETM33, pETM11, pGEX6P1 expression vectors respectively, were obtained from Genescript or kindly provided by MRC-PPU (Suppl. Data 1) The bacteria were transformed with the plasmid and grew at 37 °C in 2YT (5 g/L NaCl, 16 g/L tryptone and 10 g/L yeast extract) supplemented with Kanamycin (30 μg/mL) until reaching an OD600 of 0.7. Protein expression was induced with 0.3 mM isopropyl β-D-1 thiogalactopyranoside (IPTG) for 18 h at 18 °C while shaking. For zinc-finger domains, 50 μM of ZnSO4 was added during expression. The bacterial cultures were pelleted for 15 minutes at 4000 x g at 4 °C and stored at −20 °C until purification. The pellets were resuspended in lysis buffer (1× phosphate-buffered saline (PBS), 0.5 % Triton-X, 5 mM MgCl2, 10 μg/mL lysozyme, cOmplete^TM EDTA-free protease inhibitor cocktail (Roche), 10 μg/mL DNAseI) and incubated for 1 h shaking at 4 °C. […] The supernatant was incubated with glutathione (GSH) Sepharose (Cytiva) or Ni2+ Sepharose (Cytiva) for 1 h at 4 °C while shaking. The beads with the bound protein were washed with 1x PBS and eluted with 10 mM reduced glutathione in 50 mM Tris pH 8.0. For fluorescence polarization experiments, the proteins were not eluted from the beads, and the 6xHis-GST tag was cleaved overnight on GSH Sepharose beads at 4 °C while shaking with PreScission Protease in cleavage buffer (50 mM Tris pH 7.5, 150 mM NaCl, 1 mM DTT). The sample containing the cleaved domain was separated from the tag and protease and buffer-exchanged to 50 mM sodium phosphate buffer pH 7.4 with 1 mM DTT using a PD-10 desalting column (Cytiva). The purity and size of the proteins were analyzed by SDS-PAGE electrophoresis.
The measurements were performed at room temperature in a non-binding black half area 96-well plate (Corning) with a total volume of 50 μL per well. Peptides were obtained from GeneCust (France) with >95% purity. FITC-labeled peptides (N-terminally FITC-labeled without spacer and C-terminally amidated) were dissolved in dimethyl sulfoxide (DMSO), and unlabeled peptides (N-terminally acetylated and C-terminally amidated) were dissolved in 50 mM phosphate buffer pH 7.4. Saturation measurements were performed using a serial dilution of the protein domains in phosphate buffer (25 μL) and the addition of 10 nM FITC-labeled peptide (in phosphate buffer supplemented with 2 mM DTT) (25 μL). […] All measurements were performed in three technical replicates. The data were analyzed using GraphPad Prism version 9.2.0 for MacOS (GraphPad Software, San Diego, California USA, www.graphpad.com). […]

USP22 zf-UBP domain = target: T4, USP22 zf-UBP domain (Homo sapiens, UniProt Q9UPT9); experiment: FP-monitored affinity measurements, USP22 zf-UBP; details: USP22_zf-UBP
T4 construct: USP22_zf-UBP; Q9UPT9; zf-UBP; 37; 130; 6xHis-GST (N, cleaved yes); made in house; host or cells: Escherichia coli BL21-Gold (DE3)
T4 sequence (Q9UPT9 37-130): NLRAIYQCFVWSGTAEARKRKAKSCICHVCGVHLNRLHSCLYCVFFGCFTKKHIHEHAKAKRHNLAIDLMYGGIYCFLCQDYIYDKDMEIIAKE
Description: as §1
The measurements were performed at room temperature in a non-binding black half area 96-well plate (Corning) with a total volume of 50 μL per well. Peptides were obtained from GeneCust (France) with >95% purity. FITC-labeled peptides (N-terminally FITC-labeled without spacer and C-terminally amidated) were dissolved in dimethyl sulfoxide (DMSO), and unlabeled peptides (N-terminally acetylated and C-terminally amidated) were dissolved in 50 mM phosphate buffer pH 7.4. Saturation measurements were performed using a serial dilution of the protein domains in phosphate buffer (25 μL) and the addition of 10 nM FITC-labeled peptide (in phosphate buffer supplemented with 2 mM DTT) (25 μL). […] All measurements were performed in three technical replicates. The data were analyzed using GraphPad Prism version 9.2.0 for MacOS (GraphPad Software, San Diego, California USA, www.graphpad.com). The saturation curves were fitted to the quadratic equation, and the displacement curves were fitted to a sigmoidal dose-response equation as described previously.

[1] = USP33_UBP, FP displacement by unlabelled peptide, read-out: KD
[2] = USP20_UBP, FP displacement by unlabelled peptide, read-out: KD

T2 sequence (Q9Y2K6 4-99): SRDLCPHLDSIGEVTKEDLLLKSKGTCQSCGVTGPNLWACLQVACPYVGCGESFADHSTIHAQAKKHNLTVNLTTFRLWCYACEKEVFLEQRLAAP
T3 sequence (P51784 67-288): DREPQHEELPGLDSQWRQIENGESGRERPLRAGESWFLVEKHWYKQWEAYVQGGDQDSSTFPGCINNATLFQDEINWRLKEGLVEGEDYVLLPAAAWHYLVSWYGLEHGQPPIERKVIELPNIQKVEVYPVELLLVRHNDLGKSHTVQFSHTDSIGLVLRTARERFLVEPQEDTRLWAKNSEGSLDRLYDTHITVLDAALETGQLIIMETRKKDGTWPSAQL

Compound: EKVKRRLDLDID [CCP110_582-593]
Kd (USP33 zf-UBP domain; read-out: KD, USP33 zf-UBP): > 250 µM | Kd (USP20 zf-UBP domain; read-out: KD, USP20 zf-UBP): > 500 µM

Compound: CC[C@H](C)[C@H](NC(=O)[C@H](Cc1c[nH]c2ccccc12)NC(=O)[C@H](CC(=O)O)NC(=O)[C@@H]1CCCN1C(=O)[C@H](Cc1ccc(O)cc1)NC(=O)[C@@H](NC(=O)[C@@H](NC(=O)[C@H](C)NC(=O)[C@H](CO)NC(=S)Nc1ccc2c(c1)C(=O)OC21c2ccc(O)cc2Oc2cc(O)ccc21)C(C)C)[C@@H](C)O)C(=O)NCC(=O)N[C@@H](CCC(N)=O)C(=O)N[C@@H](CO)C(=O)N[C@@H](Cc1ccc(O)cc1)C(=O)N[C@@H](CO)C(=O)N[C@@H](CCC(=O)O)C(=O)N[C@H](C(N)=O)C(C)C [FITC-ORAI1] ({FITC}-SAVTYPDWIGQSYSEV-NH2)
Kd (USP11 DUSP-UBL domain; USP11_DUSP_UBL, direct FP titration (saturation) of the FITC-labelled peptide, read-out: KD): ~294 µM

Compound: CC[C@H](C)[C@H](NC(=O)[C@H](Cc1c[nH]c2ccccc12)NC(=O)[C@H](CO)NC(=O)[C@H](CO)NC(=O)[C@H](Cc1c[nH]c2ccccc12)NC(=O)[C@@H]1CCCN1C(=O)[C@H](CCCCN)NC(=O)CNC(=O)[C@H](CC(C)C)NC(=O)[C@H](Cc1ccccc1)NC(=O)[C@H](C)NC(=O)[C@H](CCC(=O)O)NC(=O)[C@@H]1CCCN1C(=O)[C@H](CO)NC(=O)[C@@H]1CCCN1C(=O)[C@@H](NC(=S)Nc1ccc2c(c1)C(=O)OC21c2ccc(O)cc2Oc2cc(O)ccc21)C(C)C)C(=O)N[C@@H](CC(=O)O)C(=O)N[C@@H](C)C(=O)N[C@@H](C)C(=O)N[C@@H](CCCCN)C(=O)N[C@@H](CC(C)C)C(=O)N[C@@H](Cc1c[nH]cn1)C(N)=O [FITC-ATXN7L1_36-57] ({FITC}-VPSPEAFLGKPWSSWIDAAKLH-NH2)
Kd (USP22 zf-UBP domain; direct FP titration (saturation) of the FITC-labelled peptide): 1 µM

Compound: Ac-VPSLDDFAGQSWSSWVERADLP-NH2 [ATXN7L2_18-39]
Kd (USP22 zf-UBP domain; FP displacement by unlabelled peptide): 2.91 µM

Compound: Ac-SAVTYPDWIGQSYSEV-NH2 [ORAI1_USP11]
Kd (USP11 DUSP-UBL domain; USP11_DUSP_UBL, FP displacement of the FITC-labelled peptide by unlabelled peptide, read-out: KD): ~207 µM

Compound: CC[C@H](C)[C@H](NC(=O)[C@H](Cc1c[nH]c2ccccc12)NC(=O)[C@H](CC(=O)O)NC(=O)[C@@H]1CCCN1C(=O)[C@H](Cc1ccc(O)cc1)NC(=O)[C@@H](NC(=O)[C@@H](NC(=O)[C@H](C)NC(=O)[C@H](CO)NC(=S)Nc1ccc2c(c1)C(=O)OC21c2ccc(O)cc2Oc2cc(O)ccc21)C(C)C)[C@@H](C)O)C(=O)NCC(=O)N[C@@H](CCC(N)=O)C(=O)N[C@@H](CO)C(=O)N[C@@H](Cc1ccc(O)cc1)C(=O)N[C@@H](CO)C(=O)N[C@@H](CCC(=O)O)C(=O)N[C@H](C(N)=O)C(C)C [FITC-ORA1] ({FITC}-SAVTYPDWIGQSYSEV-NH2)
Kd (USP11 DUSP-UBL domain; FP saturation, FITC-labeled peptide, technical triplicates, read-out: KD, USP11 DUSP-UBL, labeled peptide (direct binding)): > 290 µM

The remaining lines, values ahead:

Kd (USP33 zf-UBP domain; [1]): 40.6 µM | Kd (USP20 zf-UBP domain; [2]): ~162 µM
Compound: YPFQPGRMALESQSPG [USP19]

Kd (USP33 zf-UBP domain; [1]): ~260 µM | Kd (USP20 zf-UBP domain; [2]): ~505 µM
Compound: Ac-YEKVKRRLDLDID-NH2 [CCP110]
